Laboratory results from patent US5571816A, “Pyrimidines” (Hoechst Aktiengesellschaft, priority 1992, dated 1996).
Structures can show the parent of a compound that is named as a salt. Where two headings read alike, the source gives them in different places.

Tests used:
[1] = Solubility in water of salts (and free bases); format: physicochemical; conditions: for 1 part by mass dissolves in ... parts by H2O / solubility / 1 part by mass dissolves in ... parts of H2O: 2 23.0; for solubility: water
serum lipoproteins = assay: Effect on serum lipoproteins of normolipemic male rats in a subchronic experiment; format: in vivo; conditions: Rattus norvegicus, po, by stomach tube, 7 administrations; for change in vivo at 30 mg/kg: 30 mg/kg/day; for change in vivo at 10 mg/kg: 10 mg/kg/day
Method: 3. In vivo, the increased LDL receptor activity in experimental animals is reflected by reduction in the lipoprotein fractions which can be metabolized by the LDL receptor (apoB/E receptor), i.e. a reduction in the LDL and VLDL levels is observed. The following test was carried out:
Effect on serum lipoproteins of normolipemic male rats in a subchronic experiment
Groups of in each case 10 male rats of the HOE: WISKf (SPF 71) strain with an initial weight above 180 g received once a day (in the morning) the test product or the comparison product in 1% aqueous ®Tylose MH 300 solution by stomach tube (0.5 ml/100 g of body weight); the control group in each case received only the vehicle. The last (7th) administration took place 24 hours before removal of blood and sacrifice. There was free access to food and water during the test. The food was withdrawn 24 hours before the removal of blood.
The serum from all 10 rats in a group was pooled for the analysis of the serum lipoproteins. The serum lipoproteins were separated with a preparative ultracentrifuge (KONTRON TGA 65, Rotor BECKMAN 50.4 Ti).
The following conditions specified by Koga, S., Horwitz, D. L., and Scanu, A. M., Journal of Lipid Research 10, 577 (1969) and Havel, R. J., Eder, H. A., and Bragdon, H. H., J. Clin. Invest. 34, 1345 (1955) were used to separate VLDL and LDL: 1. VLDL: Density<1.006, 40,000 rpm for 16 hours 2. LDL: Density 1.006-1.04, 40,000 rmp for 16 hours
Test kits from BOEHRINGER/Mannheim were used for the enzymatic determination of cholesterol and triglycerides in the separated lipoprotein fractions (cf. Siedel, J., Schlumberger, H., Klose, S., Ziegenhorn, J. and Wahlefeld, A. W., J. Clin. Chem. Clin. Biochem. 19, 838 (1981) and Wahlefeld, A. W., in: H. O. Bergmeier: Methoden der enzymatischen Analyse (Methods of Enzymatic Analysis), 2nd edition, Volume II, Verlag Chemie 1974, page 1878). The proteins were determined by the method of Lowry (Lowry, O. H., Roseborough, N. H., Farr, A. L. and Randell, R. J., J. Biol. Chem. 193, 265 (1951)).
Clofibrate was used as comparison product.

[2] = Table 2, salts of compounds I, temp. by No. [°C]: 1 25.5, 3 22.4, 4 22.4, 5 22.0, 6 25.0, 7 25.5, 8 25.5, 9 25.5, 10 23.5, 11 23.5, 12 25.0, 13 24.0, 14 23.0, 15 22.0, 16 24.5, 17 22.5, 18 22.0
[3] = Table 2, salts of compounds I, temp. by No. [°C]: 1 25.5, 3 22.4, 4 22.4, 5 22.0, 6 25.0, 7 25.5, 8 25.5, 9 25.5, 10 23.5, 11 23.5, 12 25.0, 13 24.0, 14 23.0, 15 22.0, 16 24.5, 17 22.5, 18 22.0, read-out: Solubility in water, Concentration in % by wt.
[4] = read-out: Serum LDL cholesterol, % change from control at end of treatment
[5] = read-out: Serum LDL protein, % change from control at end of treatment
[6] = read-out: Serum VLDL cholesterol, % change from control at end of treatment
[7] = read-out: Serum VLDL protein, % change from control at end of treatment
[8] = read-out: Serum VLDL triglycerides, % change from control at end of treatment
[9] = Table 1, N-H analogs, temp. by No. [°C]: 1 25.0, 3 26.2, 4 25.1, 5 25.2, 6 24.1, 7 24.5, 8 24.2, 9 24.2, 10 25.7, 11 25.8
[10] = Table 1, N-H analogs, temp. by No. [°C]: 1 25.0, 3 26.2, 4 25.1, 5 25.2, 6 24.1, 7 24.5, 8 24.2, 9 24.2, 10 25.7, 11 25.8, read-out: Solubility in water, Concentration in % by wt.
[11] = Table 1, N-H analogs, temp. by No. [°C]: 1 25.0, 3 26.2, 4 25.1, 5 25.2, 6 24.1, 7 24.5, 8 24.2, 9 24.2, 10 25.7, 11 25.8, read-out: Solubility in water, Molarity × 10^-3

SMILES: CC(C)N(C(=O)c1cnc(N2CC(C)(C)NC2=O)nc1N)c1ccc(F)c(C(F)(F)F)c1 [Example 35]
- 1 part by mass dissolves in ... parts by H2O [1, 2]: 28.6 parts by H2 O
- solubility [1, 3]: 33.8 mg/mL
- change in vivo at 30 mg/kg (serum lipoproteins; [4]): 46%
- change in vivo at 30 mg/kg (serum lipoproteins; [5]): -35%
- change in vivo at 30 mg/kg (serum lipoproteins; [6]): -79%
- change in vivo at 30 mg/kg (serum lipoproteins; [7]): -69%
- change in vivo at 30 mg/kg (serum lipoproteins; [8]): -55%

SMILES: CCN(C(=O)c1cnc(N2CC(C)NC2=O)nc1N)c1cccc(C(F)(F)F)c1 (stereo not shown) [Example 58, 4-amino-2-(4-methyl-2-oxo-1-imidazolidinyl)pyrimidine-5-carboxylic acid N-ethyl-N-(3-trifluoromethylphenyl)amide hydrochloride]
- 1 part by mass dissolves in ... parts by H2O [1, 2]: 6.8 parts by H2 O
- solubility [1, 3]: 128 mg/mL
- change in vivo at 30 mg/kg (serum lipoproteins; [4]): 46%
- change in vivo at 30 mg/kg (serum lipoproteins; [5]): -25%
- change in vivo at 30 mg/kg (serum lipoproteins; [6]): -59%
- change in vivo at 30 mg/kg (serum lipoproteins; [7]): -22%
- change in vivo at 30 mg/kg (serum lipoproteins; [8]): -40%

SMILES: CN(C(=O)c1cnc(N2CCNC2=O)nc1N)c1cccc(C(F)(F)F)c1 [Example 64, 4-amino-2-(2-oxo-1-imidazolidinyl)pyrimidine-5-carboxylic acid N-methyl-N-(3-trifluoromethylphenyl)amide hydrochloride]
- 1 part by mass dissolves in ... parts by H2O [1, 2]: 19.8 parts by H2 O
- solubility [1, 3]: 48.1 mg/mL
- change in vivo at 30 mg/kg (serum lipoproteins; [4]): -20%
- change in vivo at 30 mg/kg (serum lipoproteins; [5]): -10%
- change in vivo at 30 mg/kg (serum lipoproteins; [6]): -18%
- change in vivo at 30 mg/kg (serum lipoproteins; [7]): -28%

SMILES: CC1(C)CN(c2ncc(C(=O)N(CC3CC3)c3cc(C(F)(F)F)ccc3F)c(N)n2)C(=O)N1 [Example 61, 4-amino-2-(4,4-dimethyl-2-oxo-1-imidazolidinyl)pyrimidine-5-carboxylic acid N-cyclopropylmethyl-N-(2-fluoro-5-trifluoromethylphenyl)amide]
- 1 part by mass dissolves in ... parts by H2O [1, 2]: 65.8 parts by H2 O
- solubility [1, 3]: 15 mg/mL

SMILES: CC1(C)CN(c2ncc(C(=O)Nc3ccc(F)c(C(F)(F)F)c3)c(N)n2)C(=O)N1 [No. 3 (Table 1), reference compound]
- 1 part by mass dissolves in ... parts of H2O [1, 9]: 703 parts of H2 O
- solubility [1, 10]: 1.4 mg/mL
- solubility [1, 11]: 3.17 mM

SMILES: CC(C)(C)CN(C(=O)c1cnc(N2CC(C)(C)NC2=O)nc1N)c1cccc(C(F)(F)F)c1 [Example 37]
- 1 part by mass dissolves in ... parts by H2O [1, 2]: 53.3 parts by H2 O
- solubility [1, 3]: 19.1 mg/mL
- change in vivo at 10 mg/kg (serum lipoproteins; [4]): -39%
- change in vivo at 10 mg/kg (serum lipoproteins; [5]): -21%
- change in vivo at 10 mg/kg (serum lipoproteins; [6]): -56%
- change in vivo at 10 mg/kg (serum lipoproteins; [7]): -30%
- change in vivo at 10 mg/kg (serum lipoproteins; [8]): -40%
- change in vivo at 30 mg/kg (serum lipoproteins; [4]): -76%
- change in vivo at 30 mg/kg (serum lipoproteins; [5]): -49%
- change in vivo at 30 mg/kg (serum lipoproteins; [6]): -85%
- change in vivo at 30 mg/kg (serum lipoproteins; [7]): -48%
- change in vivo at 30 mg/kg (serum lipoproteins; [8]): -75%

SMILES: CCN(C(=O)c1cnc(N2CC(C)(C)NC2=O)nc1N)c1cc(C(F)(F)F)ccc1F [Example 32]
- solubility [1, 3]: 10.1 mg/mL
- change in vivo at 10 mg/kg (serum lipoproteins; [4]): -54%
- change in vivo at 10 mg/kg (serum lipoproteins; [5]): -36%
- change in vivo at 10 mg/kg (serum lipoproteins; [6]): -85%
- change in vivo at 10 mg/kg (serum lipoproteins; [7]): -73%
- change in vivo at 10 mg/kg (serum lipoproteins; [8]): -68%
- change in vivo at 30 mg/kg (serum lipoproteins; [4]): -76%
- change in vivo at 30 mg/kg (serum lipoproteins; [5]): -49%
- change in vivo at 30 mg/kg (serum lipoproteins; [6]): -100%
- change in vivo at 30 mg/kg (serum lipoproteins; [7]): -39%
- change in vivo at 30 mg/kg (serum lipoproteins; [8]): -80%

SMILES: CC1(C)CN(c2ncc(C(=O)N(c3cccc(C(F)(F)F)c3)C3CCCC3)c(N)n2)C(=O)N1 [No. 8 (Table 2)]
- 1 part by mass dissolves in ... parts by H2O [1, 2]: 60.6 parts by H2 O
- solubility [1, 3]: 16.2 mg/mL

SMILES: COc1ccc(C(F)(F)F)cc1NC(=O)c1cnc(N2CC(C)(C)NC2=O)nc1N [No. 6 (Table 1), reference compound]
- 1 part by mass dissolves in ... parts of H2O [1, 9]: 75 parts of H2 O
- solubility in water, in words ([1]; categories of the Deutsches Arzneibuch): sparingly soluble
- solubility [1, 10]: 13.2 mg/mL
- solubility [1, 11]: 28.9 mM

SMILES: CC1(C)CN(c2ncc(C(=O)Nc3ccc(Cl)c(C(F)(F)F)c3)c(N)n2)C(=O)N1 [No. 5 (Table 1), reference compound]
- solubility [1, 10]: 1 mg/mL
- solubility [1, 11]: 2.03 mM

SMILES: CC(C)N(C(=O)c1cnc(N2CC(C)(C)NC2=O)nc1N)c1cccc(C(F)(F)F)c1 [Example 3, 4-amino-2-(4,4-dimethyl-2-oxo-1-imidazolidinyl)pyrimidine-5-carboxylic acid N-isopropyl-N-(3-trifluoromethylphenyl)amide]
- 1 part by mass dissolves in ... parts by H2O [1, 2]: 24.7 parts by H2 O
- solubility [1, 3]: 38.9 mg/mL

SMILES: CC(C)CC(C)N(C(=O)c1cnc(N2CC(C)(C)NC2=O)nc1N)c1cccc(C(F)(F)F)c1 (stereo not shown) [Example 38]
- 1 part by mass dissolves in ... parts by H2O [1, 2]: 15.3 parts by H2 O
- solubility [1, 3]: 61.3 mg/mL

SMILES: CC1(C)CN(c2ncc(C(=O)Nc3cc(C(F)(F)F)ccc3Cl)c(N)n2)C(=O)N1 [No. 4 (Table 1), reference compound]
- 1 part by mass dissolves in ... parts of H2O [1, 9]: 217 parts of H2 O
- solubility [1, 10]: 4.6 mg/mL
- solubility [1, 11]: 9.91 mM

SMILES: CCCC1(C)CN(c2ncc(C(=O)Nc3cccc(C(F)(F)F)c3)c(N)n2)C(=O)N1 (stereo not shown) [No. 10 (Table 1), reference compound]
- 1 part by mass dissolves in ... parts of H2O [1, 9]: 255 parts of H2 O
- solubility [1, 10]: 3.9 mg/mL
- solubility [1, 11]: 8.54 mM

SMILES: CC1(C)CN(c2ncc(C(=O)N(CC3CC3)c3cccc(C(F)(F)F)c3)c(N)n2)C(=O)N1 [No. 9 (Table 2)]
- 1 part by mass dissolves in ... parts by H2O [1, 2]: 13.1 parts by H2 O
- solubility [1, 3]: 71.1 mg/mL

SMILES: CCCCCN(C(=O)c1cnc(N2CC(C)(C)NC2=O)nc1N)c1cccc(C(F)(F)F)c1 [Example 47, 4-amino-2-(4,4-dimethyl-2-oxo-1-imidazolidinyl)pyrimidine-5-carboxylic acid N-pentyl-N-(3-trifluoromethylphenyl)amide hydrochloride]
- 1 part by mass dissolves in ... parts by H2O [1, 2]: 51.3 parts by H2 O
- solubility [1, 3]: 18.7 mg/mL

SMILES: C=CC1CN(c2ncc(C(=O)N(C)c3cccc(C(F)(F)F)c3)c(N)n2)C(=O)N1 (stereo not shown) [Example 72, 4-amino-2-(4-vinyl-2-oxo-1-imidazolidinyl)pyrimidine-5-carboxylic acid N-methyl-N-(3-trifluoromethylphenyl)amide hydrochloride]
- 1 part by mass dissolves in ... parts by H2O [1, 2]: < 9 parts by H2 O
- solubility [1, 3]: > 100 mg/mL

SMILES: CCCC1(C)CN(c2ncc(C(=O)Nc3ccc(Cl)c(C(F)(F)F)c3)c(N)n2)C(=O)N1 (stereo not shown) [No. 9 (Table 1), reference compound]
- solubility [1, 10]: 1.3 mg/mL
- solubility [1, 11]: 2.8 mM

SMILES: CCN(C(=O)c1cnc(N2CC(C)(C)NC2=O)nc1N)c1cccc(C(F)(F)F)c1 [Example 1, 4-amino-2-(4,4-dimethyl-2-oxo-1-imidazolidinyl)pyrimidine-5-carboxylic acid N-ethyl-N-(3-trifluoromethylphenyl)amide]
- 1 part by mass dissolves in ... parts by H2O [1, 2]: 13.5 parts by H2 O
- solubility [1, 3]: 68.9 mg/mL
